Here are results for seven compounds from patent publication US20210363563A1, “MEDIUM FOR THE SPECIFIC DETECTION OF RESISTANT MICROORGANISMS” (BIOMERIEUX, priority 2005, published 2021).

For one test, the system named is ESBL-positive strains. Nature of the test: Antibiotic concentration range on CPS ID 3 chromogenic agar: growth of ESBL-positive strains. The note with it: CPS ID 3 agar, 37° C., aerobic atmosphere. It counts as cell-based. From the text: (§1) In the context of the manipulations carried out, for evaluating the activity of the antibiotics active on gram-negative bacilli, various species of enterobacteria (Escherichia coli, Enterobacter aerogenes, Klebsiella pneumoniae, Serratia marcescens, Proteus mirabilis) and of nonfermenting gram-negative bacilli (Pseudomonas aeruginosa), capable of producing ESBLs, were used. ESBL-positive strains, high level cephalosporinase-producing strains (HL Case) and wild-type strains are compared in the trials.
(§2) The medium used was a CPS ID3 medium (reference 43541) also comprising at least one antibiotic and at least one resistance mechanism inhibitor.
(§3) Osmosed water is added and the whole is homogenized and melted in a waterbath at 100° C. The base medium is dispensed into flasks, the number of which corresponds to the total number of media to be tested during the process. The flasks are then autoclaved for 15 min at 121° C. The media are brought back to and kept molten at 55±3° C. in a waterbath, in order to sterilely add the thermolabile additives (sterilized beforehand by filtration through 0.22 μm). The media are then poured into biplates 90 mm in diameter (i.e. approximately 9.5 ml/half-plate), and left on a flat surface so that they can set. The surface of the agars is then dried under a laminar flow hood for 30 min.
(§4) An inoculum of 0.5 McF is prepared, in physiological saline, from 24-hour precultures at 36° C.±2° C. in an aerobic atmosphere on TSA medium, and then 1 μl of this suspension is transferred into 5 ml of physiological saline. In order to obtain a sufficient number of isolated colonies, a range of inocula made it possible to determine that the optimal amount of bacteria to be inoculated was from 10^3 to 10^4 CFU/ml. The inoculation is carried out directly on the two half-agars using a sterile swab. The cultures are then incubated at 37° C. in an aerobic atmosphere.
(§5) 4. Reading of media: the readings are carried out at 18 hours (±30 min), 24 h (±1h) and 48 h (±4 h). The density and the size of the colonies, and the appearance, the color and the coloration intensities of the mass and of the isolated colonies were observed, according to the following reading scales 1 to 3: 0: no growth; 0.1: trace of growth; 0.25: colonies of diameter<0.5 mm; 0.5: colonies of 0.5 mm in diameter; 0.75: 0.5 mm<diameter<1 mm; 1: colonies of 1 mm in diameter; 1.25: 1 mm<diameter<1.5 mm; 1.5: colonies 1.5 mm in diameter; 2: colonies 2 mm in diameter; 3: colonies of diameter>2 mm.
(§6) The 5 antibiotics recommended by the NCCLS (National Committee for Clinical Laboratory Standards) were tested. For each product tested, a range was prepared in order to determine the concentrations that make it possible to inhibit the wild-type strains of the enterobacteria tested, without affecting the growth of the ESBL-positive strains or the HL Case-positive strains.
(§7) The low value corresponds to the minimum concentration of the antibiotic required to inhibit the wild-type strains of the enterobacteria tested. The high value corresponds to the maximum concentration of the antibiotic that can be used without affecting the growth of the ESBL-positive strains tested.

In test [1] the test system is wild-type strains of the enterobacteria tested. As to the kind of experiment: Antibiotic concentration range on CPS ID 3 chromogenic agar: inhibition of wild-type strains. In kind it is cell-based. The note with it: CPS ID 3 agar, 37° C., aerobic atmosphere.
Source text: as §1, §2, §3, §4, §5, §6, §7

Test [2] relates to wild-type strains of P. aeruginosa. As to the kind of experiment: Antibiotic concentration range on CPS ID 3: complete inhibition of wild-type P. aeruginosa. It counts as cell-based, Pseudomonas aeruginosa. The note with it: CPS ID 3 agar.
Source text: as §1
Osmosed water is added and the whole is homogenized and melted in a waterbath at 100° C. The base medium is dispensed into flasks, the number of which corresponds to the total number of media to be tested during the process. The flasks are then autoclaved for 15 min at 121° C. […]
as §5, with “mm. […]” for “mm.”

In test [3] the test system is ESBL-positive enterobacterial strains. It counts as cell-based, enterobacteria. The note with it: in the presence of cefotaxime.
Experimental: 4. Reading of media: the readings are carried out at 18 hours (±30 min), 24 h (±1h) and 48 h (±4 h). The density and the size of the colonies, and the appearance, the color and the coloration intensities of the mass and of the isolated colonies were observed, according to the following reading scales 1 to 3: 0: no growth; 0.1: trace of growth; 0.25: colonies of diameter<0.5 mm; 0.5: colonies of 0.5 mm in diameter; 0.75: 0.5 mm<diameter<1 mm; 1: colonies of 1 mm in diameter; 1.25: 1 mm<diameter<1.5 mm; 1.5: colonies 1.5 mm in diameter; 2: colonies 2 mm in diameter; 3: colonies of diameter>2 mm. […]
Test [4] concerns E. casseliflavus and E. gallinarum strains (natural resistances). As to the kind of experiment: Example 4: Columbia chromogenic media with vancomycin, naturally resistant enterococci. In kind it is cell-based, Enterococcus casseliflavus, Enterococcus gallinarum. The note with it: vancomycin 8 mg/l. On the procedure: In the context of the manipulations carried out, for evaluating the activity of antibiotics active on enterococci, various species of Enterococcus (Enterococccus faecalis, Enterococcus faecium, Enterococcus casseliflavus, Enterococcus gallinarum,) were used. In the assays, strains resistant to glycopeptides (VRE) and wild-type strains are compared.
The media used were a Columbia medium (51026), also comprising: • 5-bromo-4-chloro-3-indolyl-N-methyl-α-D-glucopyranoside (GreenA-α-Glu) at 150 mg/l, • 6-chloro-3-indolyl-β-glucopyranoside (Rose-b-Glu [Pink-b-Glu]) at 200 mg/l, or: • 5-bromo-4-chloro-3-indolyl-N-methyl-α-D-glucopyranoside (GreenA-α-Glu) at 150 mg/l, • alizarine-β-galactopyranoside at 50 mg/l • and vancomycin at 8 mg/l, • an amphotericin B at 4 mg/l, • and colistine at 2 mg/l, • and aztreonam at 32 mg/l.
Osmosed water is added and the whole is homogenized and melted in a waterbath at 100° C. The two basic media are dispensed into flasks. The flasks are then autoclaved for 15 min at 121° C. The media are brought back to and kept molten at 55±3° C. in a waterbath, in order to sterilely add the thermolabile additives (sterilized beforehand by filtration through 0.22 μm). The media are then poured into plates 90 mm in diameter and left on a flat surface so that they can set. The surface of the agars is then dried under a laminar flow hood for 30 min. […]

Each structure is given as a SMILES string.

On to `C[C@H]1[C@H](NC(=O)/C(=N\OC(C)(C)C(=O)O)c2csc(N)n2)C(=O)N1S(=O)(=O)O` [Aztreonam, aztreonam], for which the “High value: maximum concentration of the antibiotic that can be used without affecting the growth of the ESBL-positive strains tested” value with ESBL-positive strains was 1.5 mg/L. Besides, in test [1], the “Low value: minimum concentration of the antibiotic required to inhibit the wild-type strains of the enterobacteria tested” value is 1 mg/L.

Consider `CO/N=C(\C(=O)N[C@@H]1C(=O)N2C(C(=O)O)=C(COC(C)=O)CS[C@H]12)c1csc(N)n1` [Cefotaxime, cefotaxime], for which the “High value: maximum concentration of the antibiotic that can be used without affecting the growth of the ESBL-positive strains tested” value with ESBL-positive strains was found to be 2 mg/L. The “Low value: minimum concentration of the antibiotic required to inhibit the wild-type strains of the enterobacteria tested” value in test [1] was 1 mg/L.

With `COCC1=C(C(=O)O)N2C(=O)[C@@H](NC(=O)/C(=N\OC)c3csc(N)n3)[C@H]2SC1` [Cefpodoxime, cefpodoxime], in the test on ESBL-positive strains, the “High value: maximum concentration of the antibiotic that can be used without affecting the growth of the ESBL-positive strains tested” value was determined as 10 mg/L. In addition, the “Low value: minimum concentration of the antibiotic required to inhibit the wild-type strains of the enterobacteria tested” value in test [1] is 2 mg/L.

For the compound `CC(C)(O/N=C(\C(=O)N[C@@H]1C(=O)N2C(C(=O)[O-])=C(C[n+]3ccccc3)CS[C@H]12)c1csc(N)n1)C(=O)O` [Ceftazidime, ceftazidime], the “High value: maximum concentration of the antibiotic that can be used without affecting the growth of the ESBL-positive strains tested” value in the test with ESBL-positive strains worked out at 2.5 mg/L. The “Low value: minimum concentration of the antibiotic required to inhibit the wild-type strains of the enterobacteria tested” value in test [1] amounted to 2 mg/L. In addition, the “minimum concentration for complete inhibition of wild-type strains of P. aeruginosa (limiting value)” value in test [2] was 1.5 mg/L.

Regarding `CO/N=C(\C(=O)N[C@@H]1C(=O)N2C(C(=O)O)=C(CSc3nc(=O)c(=O)[nH]n3C)CS[C@H]12)c1csc(N)n1` [Ceftriaxone, ceftriaxone], the “High value: maximum concentration of the antibiotic that can be used without affecting the growth of the ESBL-positive strains tested” value in the test on ESBL-positive strains is 2.5 mg/L. Moreover, the “Low value: minimum concentration of the antibiotic required to inhibit the wild-type strains of the enterobacteria tested” value in test [1] was 1 mg/L.

On to `O=C(O)[C@H]1/C(=C/CO)O[C@@H]2CC(=O)N21` [clavulanic acid], for which the “relative effectiveness among the β-lactamase inhibitors (BLI) tested” value in test [3] was “most effective BLI”.

In the case of `CN[C@H](CC(C)C)C(=O)N[C@H]1C(=O)N[C@@H](CC(N)=O)C(=O)N[C@H]2C(=O)N[C@H]3C(=O)N[C@H](C(=O)N[C@H](C(=O)O)c4cc(O)cc(O)c4-c4cc3ccc4O)[C@H](O)c3ccc(c(Cl)c3)Oc3cc2cc(c3O[C@@H]2O[C@H](CO)[C@@H](O)[C@H](O)[C@H]2O[C@H]2C[C@](C)(N)[C@H](O)[C@H](C)O2)Oc2ccc(cc2Cl)[C@H]1O` [vancomycin], the “effect on E. casseliflavus and E. gallinarum strains” value in test [4] (medium with α-glucosidase and β-galactosidase substrates) is given as “inhibited”; in test [4] (medium with α-glucosidase and β-glucosidase substrates), “inhibited”.
